The values below come from patent US5693617A, “Inhibitors of the 26s proteolytic complex and the 20s proteasome contained therein” (ProScript, Inc., priority 1995, dated 1997).

pKi: −log10 of the molar value. Non-standard residues stand in square brackets, D forms with d. Residues, ends and D or L forms follow the SMILES beside them. ξ: configuration not given here. *: point of attachment. 1Nal = N[C@@H](Cc1cccc2ccccc12)C(=O)O; 2Nal = N[CH](Cc1ccc2ccccc2c1)C(=O)O; Cha = N[C@@H](CC1CCCCC1)C(=O)O; Ile(3ξ) = CCC(C)[C@H](N)C(=O)O; Nva = CCC[C@H](N)C(=O)O; Cbz = O=C(OCc1ccccc1)*; Boc = CC(C)(C)OC(=O)*; Bn = c1ccc(C*)cc1

The first assay deals with PC12 cells.
Assay: not given
The following applies: Tsubuki et al. 1993; cited from earlier work.
As to `CC(C)C[C@@H](C=O)NC(=O)[C@H](CC(C)C)NC(=O)[C@H](CC(C)C)NC(=O)OCc1ccccc1` [Z-Leu-Leu-Leu-H, Z-L-Leucine-L-Leucine-L-Leucinal] (Cbz-Leu-Leu-Leu-aldehyde), the “Optimal concentration for initiating neurite outgrowth” value is on record as 30 nM.

In another assay the test system is chymotrypsin-like activity of the proteasome.
Assay: not given
The following applies: Orlowski 1990; cited from earlier work.
Take `CC(C)C[C@@H](C=O)NC(=O)CNC(=O)CNC(=O)OCc1ccccc1` [Z-Gly-Gly-Leu-H] (Cbz-Gly-Gly-Leu-aldehyde): the “Inhibition of the chymotrypsin-like activity of the proteasome” value is reported as “inhibits the chymotrypsin-like activity of the proteasome”.

Still in this assay, the particulars now being: Vinitsky et al. 1992; slow binding inhibitors; cited from earlier work.
With `CSCC[C@@H](C=O)NC(=O)[C@H](CC(C)C)NC(=O)[C@H](CC(C)C)NC(C)=O` [Ac-LLM-H, N-acetyl-Leu-Leu-methioninal] (Ac-Leu-Leu-Met-aldehyde), the negative logarithm of the Ki (pKi) (in general, the negative decadic logarithm of the Ki, by convention in mol/L) is 4.48.

Turning to `CC(C)C[C@H](NC(=O)OCc1ccccc1)C(=O)N[C@@H](CC(C)C)C(=O)N[C@H](C=O)Cc1ccccc1` [MG 110, Z-Leu-Leu-Phe-H] (Cbz-Leu-Leu-Phe-aldehyde), the pKi is 6.34.

As for `CCOC(=O)C(=O)[C@H](Cc1ccccc1)NC(=O)[C@H](CC(C)C)NC(=O)[C@H](CC(C)C)NC(=O)OCc1ccccc1` [Z-Leu-Leu-Phe-COOEt], the pKi was 4.28.

In a further assay the target is T1, 20S proteasome (Oryctolagus cuniculus, UniProt G1T4Q9).
T1 sequence (G1T4Q9 60-263): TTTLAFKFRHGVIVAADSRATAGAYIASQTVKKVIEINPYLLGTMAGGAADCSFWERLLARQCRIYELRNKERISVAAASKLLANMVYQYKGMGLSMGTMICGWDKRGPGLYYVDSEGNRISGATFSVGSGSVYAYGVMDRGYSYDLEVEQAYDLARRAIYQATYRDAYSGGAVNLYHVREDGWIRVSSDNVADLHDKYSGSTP
T1 sequence (G1SU71 1-241 partner): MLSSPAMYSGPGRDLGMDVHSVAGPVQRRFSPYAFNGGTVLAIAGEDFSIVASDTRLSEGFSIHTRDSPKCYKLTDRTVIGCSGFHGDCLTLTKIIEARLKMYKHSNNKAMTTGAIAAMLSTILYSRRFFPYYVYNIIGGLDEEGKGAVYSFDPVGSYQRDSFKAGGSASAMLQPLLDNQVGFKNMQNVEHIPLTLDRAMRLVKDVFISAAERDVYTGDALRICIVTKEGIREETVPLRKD
Description: Inhibition of the 20S proteasome peptidase activity (kinetic experiments). The class given is biochemical, Rabbit. As to conditions: Rabbit muscle, SDS-activated, substrate Suc-LLVY-AMC; read-out: Ki 20S. An excerpt: Tables I-III summarize results from kinetic experiments that measured the inhibition of the 20S and 26S proteasomes, as well as cathepsin B and calpain, enzymes that may also be involved in muscle protein turnover. In these tables, Ki values are reported, which are dissociation constants for the equilibrium that is established when enzyme and inhibitor interact to form the enzyme:inhibitor complex.
The substances and assay conditions are briefly summarized in the footnotes to Table I. MG 101 and MG 102, also known as Calpain Inhibitor I and II, were purchased from Calbiochem as catalogue products.
(^a) Rabbit muscle. SDSactivated. Substrate: SucLLVYAMC.
For the molecule `CC(C)C[C@H](NC(=O)OCc1ccccc1)C(=O)N[C@@H](CC(C)C)C(=O)N[C@H](C=O)CC1CCCCC1` [MG 129] (Cbz-Leu-Leu-[Cha]-aldehyde), the pKi was 7.13.

Take `CC(C)C[C@H](NC(=O)OCc1ccccc1)C(=O)N[C@@H](CC(C)C)C(=O)N[C@H](C=O)Cc1ccc(O)cc1` [MG 131] (Cbz-Leu-Leu-Tyr-aldehyde): the pKi is 8.15.

As to `CC(C)C[C@@H](C=O)NC(=O)[C@H](CC(C)C)NC(=O)[C@H](CC(C)C)NC(=O)OCc1ccccc1` [MG 132] (Cbz-Leu-Leu-Leu-aldehyde), the pKi was 8.40.

For `CCC(C)[C@@H](C=O)NC(=O)[C@H](CC(C)C)NC(=O)[C@H](CC(C)C)NC(=O)OCc1ccccc1` (stereo partly drawn) [MG 134] (Cbz-Leu-Leu-[Ile(3ξ)]-aldehyde), the pKi was 6.98.

Consider `CCC[C@@H](C=O)NC(=O)[C@H](CC(C)C)NC(=O)[C@H](Cc1cccc2ccccc12)NC(=O)OCc1ccccc1` [MG 142] (Cbz-[1Nal]-Leu-[Nva]-aldehyde), for which the pKi was 9.70.

On to `CC(C)C[C@H](NC(=O)OCc1ccccc1)C(=O)N[C@@H](CC(C)C)C(=O)N[C@H](C=O)Cc1ccc(OCc2ccccc2)cc1` [MG 153] (Cbz-Leu-Leu-Tyr(Bn)-aldehyde), for which the pKi was 6.55.

Regarding `CC(C)C[C@@H](C=O)NC(=O)[C@H](CC(C)C)NC(=O)[C@H](CC(C)C)NC(=O)OC(C)(C)C` [MG 155] (Boc-Leu-Leu-Leu-aldehyde), the pKi is 7.33.

Consider `CC(C)CC(C=O)NC(=O)C(Cc1ccc2ccccc2c1)NC(=O)OCc1ccccc1` (stereo not drawn) [MG 279, Z-Nal-Leu-H] (Cbz-[2Nal]-Leu-aldehyde; configuration not given here), for which the pKi was 7.62.
